Data as given in ChEMBL document CHEMBL3813611, “Antiprotozoal activity of bicycles featuring a dimethylamino group at their bridgehead” (Bioorg Med Chem, 2016).
pIC50: −log10 of the molar value.

Tests used:
[1] = system: Plasmodium falciparum; test: Antiplasmodial activity against chloroquine/pyrimethamine resistant Plasmodium falciparum K1 infected in human red blood cells after 48 hrs by [3H]hypoxanthine incorporation assay; type: functional, organism-based
[2] = system: L6; test: Cytotoxicity against rat L6 cells assessed as reduction in cell viability after 72 hrs by Alamar blue assay; type: cell-based; conditions: L6, 72 h
[3] = Selectivity index, ratio of IC50 for rat L6 cells to IC50 for chloroquine/pyrimethamine resistant Plasmodium falciparum K1 infected in human red blood cells; type: toxicity, cell-based; conditions: read-out: Ratio IC50
[4] = Selectivity index, ratio of IC50 for rat L6 cells to IC50 for Trypanosoma brucei rhodesiense STIB 900 bloodstream forms; type: toxicity, cell-based; conditions: read-out: Ratio IC50
[5] = system: Trypanosoma brucei rhodesiense; test: Antitrypanosomal activity against Trypanosoma brucei rhodesiense STIB 900 bloodstream forms after 72 hrs by Alamar blue assay; type: functional, organism-based; conditions: STIB 900, 72 h

| SMILES | pIC50 [1] | pIC50 [2] | selectivity ratio [3] | selectivity ratio [4] | pIC50 [5] |
| --- | --- | --- | --- | --- | --- |
| CN(C)C12CC(NC(=O)CN3CCCCC3)C(C(c3ccccc3)C1)C(c1ccccc1)C2 (racemic) | 6.96 | 5.15 | 65.1 | 14.9 | 6.32 |
| CN1CCN(CCC(=O)N2CC3C(c4ccccc4)CC(N(C)C)(CC3c3ccccc3)C2)CC1 (racemic) | 6.74 | 4.89 | 72.1 | 8.54 | 5.82 |
| CN(C)C12CC(c3ccccc3)C(CN(C(=O)CN3CCCCC3)C1)C(c1ccccc1)C2 (racemic) | 6.40 | 4.92 | 30.3 | 5.05 | 5.62 |
| CCN(CC)CCN1CCC2(N(C)C)CC(c3ccccc3)C1C(c1ccccc1)C2 (racemic) | 6.15 | 4.00 | 142 | 56.5 | 5.75 |
| CN(C)C12CCN(C(=O)CN3CCCCC3)C(C(c3ccccc3)C1)C(c1ccccc1)C2 (stereo not drawn) | 5.76 | 3.85 | 82.2 | 14.9 | 5.02 |
| CN(C)C12CC(c3ccccc3)C(CN(CCCN3CCCCC3)C1)C(c1ccccc1)C2 (racemic) | 6.72 | 5.76 | 9.21 | 11.7 | 6.82 |
| CN(C)C12CC(NC(=O)CCN3CCCCC3)C(C(c3ccccc3)C1)C(c1ccccc1)C2 (racemic) | 6.16 | 5.11 | 11.4 | 5.27 | 5.83 |
| CN1CCN(CCN2CC3C(c4ccccc4)CC(N(C)C)(CC3c3ccccc3)C2)CC1 (racemic) | 6.60 | 5.28 | 21 | 19.5 | 6.57 |
| CN1CCN(CCCN2CC3C(c4ccccc4)CC(N(C)C)(CC3c3ccccc3)C2)CC1 (racemic) | 6.82 | 6.70 | 1.33 | 1.82 | 6.96 |
| CN(C)C12CCN(CCN3CCCCC3)C(C(c3ccccc3)C1)C(c1ccccc1)C2 (racemic) | 6.06 | 3.87 | 155 | 51.6 | 5.58 |
| CN1CCN(CC(=O)N2CC3C(c4ccccc4)CC(N(C)C)(CC3c3ccccc3)C2)CC1 (racemic) | 6.37 | 5.03 | 21.5 | 6.29 | 5.83 |
| CCN(CC)CC(=O)N1CCC2(N(C)C)CC(c3ccccc3)C1C(c1ccccc1)C2 (stereo not drawn) | 5.89 | 4.05 | 68.9 | 17.2 | 5.28 |
| C[C@@H]1CC[C@H]2[C@@H](C)C(=O)O[C@@H]3O[C@@]4(C)CC[C@@H]1[C@]32OO4 [ARTEMISININ] | 8.19 |  | 70400 |  |  |
| CN(C)C12CC(c3ccccc3)C(CN(C(=O)CN3CCCC3)C1)C(c1ccccc1)C2 (racemic) | 6.62 | 4.90 | 52.4 | 5.82 | 5.67 |
| CN(C)C12CC(c3ccccc3)C(CN(CCN3CCCCC3)C1)C(c1ccccc1)C2 (racemic) | 7.05 | 5.53 | 32.4 | 24.3 | 6.92 |
| CN(C)C12CC(c3ccccc3)C(CN(C(=O)CCN3CCCC3)C1)C(c1ccccc1)C2 (racemic) | 6.66 | 4.93 | 53.3 | 7.46 | 5.80 |
| Nc1nc(N)nc(Nc2ccc([As]3SCC(CO)S3)cc2)n1 (stereo not drawn) [MELARSOPROL] |  |  |  | 2000 |  |
| CCN(CC)CCCN1CC2C(c3ccccc3)CC(N(C)C)(CC2c2ccccc2)C1 (racemic) | 7.19 | 5.49 | 50.3 | 7.11 | 6.34 |
| CN(C)C12CC(c3ccccc3)C(CN(C(=O)CCN3CCCCC3)C1)C(c1ccccc1)C2 (racemic) | 7.28 | 4.91 | 238 | 10.1 | 5.91 |
| CN(C)C12CC(c3ccccc3)C(CN(CCCN3CCCC3)C1)C(c1ccccc1)C2 (racemic) | 6.82 | 5.81 | 10.3 | 9.69 | 6.80 |
| CN(C)C12CC(c3ccccc3)C(CN(CCN3CCCC3)C1)C(c1ccccc1)C2 (racemic) | 6.54 | 5.25 | 19.2 | 10.3 | 6.27 |
| CCN(CC)CCC(=O)N1CC2C(c3ccccc3)CC(N(C)C)(CC2c2ccccc2)C1 (racemic) | 6.41 | 4.81 | 39.6 | 20.6 | 5.84 |
